The source of these data is patent publication US6448450B1, “1-(3,5-dimethoxyphenyl)-2-(4-hydroxyphenyl)-ethylene for diabetes treatment” (Calyx Therapeutics, Inc., priority 1998, dated 2002).

SMILES strings stand for the structures.

For series [1] the following is noted: cited from earlier work.
Series [2] relates to STZ induced diabetic rats. The arrangement: blood glucose BEFORE / blood glucose AFTER: unit not given here. The settings on record: Pter. 20 mg/kg, metformin 30 mg/kg, cited from earlier work; for blood glucose AFTER: after treatment; for blood glucose BEFORE: before treatment.
For series [3], the system named is spontaneously diabetic (db/db) mice. In words: Blood glucose in spontaneously diabetic (db/db) mice. In kind it is in vivo. The settings on record: 20 mg/kg/bw/ip in propyleneglycol, within 24 hours. As to the method:
Six spontaneously diabetic (db/db) mice were divided into two groups of three each. One test group receives the diphenylethylene (20 mg/kg/bw/ip) in propyleneglycol. The control group received an equal volume of propyleneglycol. Soon after the administration of the test materials, blood glucose levels were monitored at 1 hour (see FIG. 2A) and 24 hours (see FIG. 2B) after treatment. The diphenylethylene reduced the blood glucose level by over 50 percent within 24 hours, thus establishing its antihyperglycemic effect.

Series [4] deals with STZ induced diabetic rats. In words: Effect on streptozotocin-induced diabetic rats, comparison with metformin. Type of series: in vivo. The settings on record: 20 mg/kg vs metformin 30 mg/kg. As to the method: (§1) Streptozotocin (STZ) induced diabetic rats were made by injecting STZ (40 mg/kg/bw) intravenously. Following verification of blood glucose levels after 72 hours, diabetic rats showing fasting blood glucose levels above 200 mg/dl were divided into two groups. The diphenylethylene was administered to one group in a dose of 20 mg/kg/bw in propyleneglycol. The control group received only propyleneglycol. Soon after the administration of the compound, glucose tolerance testing was conducted by a glucose load of 2 g/kg/bw and blood glucose levels were monitored at zero, 30, 60, 120 and 180 minutes by milking the tail of the rats.
The same test was conducted on STZ induced diabetic rats comparing the diphenylethylene with the commercial product metformin. The diphenylethylene was administered at a dose of 20 mg/kg and metformin was administered at the dosage of 30 mg/kg.

Series [5] concerns Streptozotocin (STZ) induced diabetic rats. In words: Glucose tolerance test in STZ induced diabetic rats. The settings on record: 20 mg/kg/bw in propyleneglycol, glucose load 2 g/kg/bw, monitored 0-180 minutes, FIG. 1. Type of series: in vivo. As to the method: as §1

Turning to `COc1cc(/C=C/c2ccc(O)cc2)cc(OC)c1` [pterostilbene, 3,5-dimethoxy-4′-hydroxy-trans-stilbene], the water solubility result in series [1] was “water insoluble”.

As for `COc1cc(/C=C/c2ccc(O)cc2)cc(OC)c1` [diphenylethylene, 1-(3,5-dimethoxyphenyl)-2-(4-hydroxyphenyl)ethylene], in series [2], the “% CHANGE of blood glucose” value was −42%, the “blood glucose AFTER” value is recorded as 219 ± 48 and the “blood glucose BEFORE” value is on record as 377 ± 37. The “reduction of blood glucose level” value in series [3] was “over 50%”. Moreover, the “glucose levels compared with the commercial product (metformin)” value in series [4] is “equivalent to those obtained by the commercial product”. Further, the “blood glucose levels versus control group after glucose load” value in series [5] is “stayed consistently below the blood glucose levels in the control group”.

For the compound `CN(C)C(=N)N=C(N)N` [Metformin, metformin, reference compound], in series [2], the “% CHANGE of blood glucose” value is on record as −48%, the “blood glucose AFTER” value is recorded as 188 ± 36 and the “blood glucose BEFORE” value is listed as 358 ± 24.
